SMILES strings stand for the structures. Positions count from the first letter of the chain named.

Consider three molecules from publication PMC11059152, “Discovery of an Aldo-Keto reductase 1C3 (AKR1C3) degrader” (Communications Chemistry, 2024).

What all share (type): biochemical
One experiment deals with T1, AKR1C2 (Homo sapiens, UniProt P52895).
T1 construct: homogeneous recombinant enzyme
T1 sequence (P52895 1-323): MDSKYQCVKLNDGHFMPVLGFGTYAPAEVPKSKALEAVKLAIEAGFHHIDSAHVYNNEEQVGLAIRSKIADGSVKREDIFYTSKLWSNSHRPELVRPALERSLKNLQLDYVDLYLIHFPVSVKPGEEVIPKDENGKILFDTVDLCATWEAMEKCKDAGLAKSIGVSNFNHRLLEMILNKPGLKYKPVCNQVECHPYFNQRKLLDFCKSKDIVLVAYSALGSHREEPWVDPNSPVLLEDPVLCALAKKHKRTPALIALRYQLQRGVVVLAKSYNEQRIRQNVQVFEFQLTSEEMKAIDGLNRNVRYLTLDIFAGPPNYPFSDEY
Kind of experiment: oxidation by purified enzyme, absorbance at […] nm; Km. To be noted: cited from earlier work.

The target in a further experiment is T2, AKR1C1 (Homo sapiens, UniProt Q04828).
T2 construct: homogeneous recombinant enzyme
T2 sequence (Q04828 1-323): T1 sequence (P52895 1-323) with V38T, H47R, V54L, S87C, M151V, H170R, L172Q
Kind of experiment: specific activity of purified enzyme, absorbance at […] nm.

In a further experiment the target is T3, AKR1C3 (Homo sapiens, UniProt P42330).
T3 construct: homogeneous recombinant enzyme
T3 sequence (P42330 1-323): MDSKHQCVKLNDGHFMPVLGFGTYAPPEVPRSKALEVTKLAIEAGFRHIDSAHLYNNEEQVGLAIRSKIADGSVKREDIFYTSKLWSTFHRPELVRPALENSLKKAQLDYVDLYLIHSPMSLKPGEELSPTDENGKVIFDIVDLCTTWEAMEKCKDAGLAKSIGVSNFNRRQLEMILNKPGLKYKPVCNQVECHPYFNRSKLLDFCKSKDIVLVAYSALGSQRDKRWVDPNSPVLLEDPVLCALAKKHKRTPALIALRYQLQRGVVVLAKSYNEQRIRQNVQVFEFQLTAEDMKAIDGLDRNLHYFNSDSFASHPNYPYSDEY
Briefly: inhibition of NADP+-dependent S-tetralol oxidation by recombinant enzyme.

For `O[C@H]1CCCc2ccccc21` [S-tetralol, (S)-(+)-1,2,3,4-tetrahydro-1-naphthol], on AKR1C2, the Km is 15 µM. In addition, the “specific activity of purified enzyme, absorbance at 340 nm” value on AKR1C1 stood at 1.4 µmol/min/mg.
For the molecule `C#CCOc1ccc(CNC(=O)c2cc(/C=C/C(=O)O)cc(-c3ccccc3)c2)cc1` [compound 4, warhead 4], the IC50 at AKR1C3 is 62 ± 1 nM.
Turning to `O=C(O)/C=C/c1cc(C(=O)NCc2ccc(OCc3cn(CCOCCOCC(=O)Nc4cccc5c4CN(C4CCC(=O)NC4=O)C5=O)nn3)cc2)cc(-c2ccccc2)c1` (stereo not shown) [compound 5, (E)-3-(5-((4-((1-(2-(2-(2-((2-(2,6-dioxopiperidin-3-yl)-1-oxoisoindolin-4-yl)amino)-2-oxoethoxy)ethoxy)ethyl)-1H-1,2,3-triazol-4-yl)methoxy)benzyl)carbamoyl)-[1,1’-biphenyl]-3-yl)acrylic acid], the IC50 at AKR1C3 is 77 ± 2 nM.

For orientation: Km means the substrate concentration at which the rate is half of its maximum. Broadly, the IC50 is the concentration that inhibits the measured activity by half.
